Test results published in patent US7345050B2, “Pyrimidine compounds” (AstraZeneca AB, priority 2001, dated 2008).

| Compound | melting point |
| --- | --- |
| OC(c1ccccc1)c1ccc(Nc2nccc(-c3cnc4ccccn34)n2)cc1 (racemic) [Example 8, (±)-2-[4-(Hydroxyphenylmethyl)anilino]-4-(imidazo-[1,2-a]-pyridin-3-yl)pyrimidine] | 213 to 216 °C |
| O=C(c1ccc(Nc2nccc(-c3cnc4ccccn34)n2)cc1)c1ccc(N2CCOCC2)cc1 [Example 1, 2-[4-(4-Morpholinobenzoyl)anilino]-4-(imidazo-[1,2-a]-pyridin-3-yl)pyrimidine] | > 237 °C (dec.) |
| Cc1ccc(C(=O)c2ccc(Nc3nccc(-c4cnc5ccccn45)n3)cc2)cc1 [Example 3, 2-[4-(4-Methylbenzoyl)anilino)-4-(imidazo-[1,2-a]-pyridin-3-yl)pyrimidine] | 238.9 to 239.2 °C |
| N#Cc1ccc(C(=O)c2ccc(Nc3nccc(-c4cnc5ccccn45)n3)cc2)cc1 [Example 4, 2-[4-(4-Cyanobenzoyl)anilino]-4-(imidazo-[1,2-a]-pyridin-3-yl)pyrimidine] | > 230 °C (dec.) |
| CCOc1cccc(C(=O)c2ccc(Nc3nccc(-c4cnc5ccccn45)n3)cc2)c1 [Example 6, 2-[4-(3-Ethoxybenzoyl)anilino]-4-(imidazo-[1,2-a]-pyridin-3-yl)pyrimidine] | 197.3 to 197.5 °C |
| O=C(c1ccc(Nc2nccc(-c3cnc4ccccn34)n2)cc1)c1ccc2cc[nH]c2c1 [Example 11, 2-[4-(1 H-Indol-6-ylcarbonyl)anilino]-4-(imidazo-[1,2-a]-pyridin-3-yl)pyrimidine] | 173 to 178 °C (dec.) |
| O=C(c1ccc(Nc2nccc(-c3cnc4ccccn34)n2)cc1)c1nccs1 [Example 13, 2-[4-(1,3-Thiazol-2-ylcarbonyl)anilino]-4-(imidazo-[1,2-a]-pyridin-3-yl)pyrimidine] | 234 to 235 °C (dec.) |

Second part, the compound after the results:

| melting point | Compound |
| --- | --- |
| 194.7 to 196.7 °C | O=C(c1ccc(Nc2nccc(-c3cnc4ccccn34)n2)cc1)c1cccc(Cl)c1 [Example 5, 2-[4-(3-Chlorobenzoyl)anilino]-4-(imidazo-[1,2-a)-pyridin-3-yl)pyrimidine] |
| 249 to 255 °C (dec.) | O=C(c1ccccc1)c1ccc(Nc2nccc(-c3cnc4ccccn34)n2)cc1 [Example 7, 2-(4-Benzoylanilino)-4-(imidazo-[1,2-a]-pyridin-3-yl)pyrimidine] |
| 225 to 228 °C (dec.) | O=C(Cc1ccccc1)c1ccc(Nc2nccc(-c3cnc4ccccn34)n2)cc1 [Example 9, 2-[4-(1-Oxo-2-phenylethyl)anilino]-4-(imidazo-[1,2-a]-pyridin-3-yl)pyrimidine] |
| 237 to 246 °C (dec.) | O=C(c1ccccc1)c1cccc(Nc2nccc(-c3cnc4ccccn34)n2)c1 [Example 10, 2-(3-Benzoylanilino)-4-(imidazo-[1,2-a]-pyridin-3-yl)pyrimidine] |
